36 compounds from ChEMBL document CHEMBL4616598 (Bioorg Med Chem, 2020) can be followed below.

The species named for assay [1] is Homo sapiens. As to the kind of experiment: Selectivity ratio of Ki for displacement of [3H]-5-carboxamidotryptamine from human 5-HT1A receptor expressed in HEK293T cell membranes to Ki for displacement of [3H]-5-carboxamidotryptamine from human 5-HT7 receptor expressed in HEK293 cell membranes. In general terms: Displacement assays read how much labelled ligand stays bound in the presence of the test substance.

In assay [2] the target is T1, 5-hydroxytryptamine receptor 1A (Homo sapiens, UniProt P08908).
T1 sequence (P08908 whole entry): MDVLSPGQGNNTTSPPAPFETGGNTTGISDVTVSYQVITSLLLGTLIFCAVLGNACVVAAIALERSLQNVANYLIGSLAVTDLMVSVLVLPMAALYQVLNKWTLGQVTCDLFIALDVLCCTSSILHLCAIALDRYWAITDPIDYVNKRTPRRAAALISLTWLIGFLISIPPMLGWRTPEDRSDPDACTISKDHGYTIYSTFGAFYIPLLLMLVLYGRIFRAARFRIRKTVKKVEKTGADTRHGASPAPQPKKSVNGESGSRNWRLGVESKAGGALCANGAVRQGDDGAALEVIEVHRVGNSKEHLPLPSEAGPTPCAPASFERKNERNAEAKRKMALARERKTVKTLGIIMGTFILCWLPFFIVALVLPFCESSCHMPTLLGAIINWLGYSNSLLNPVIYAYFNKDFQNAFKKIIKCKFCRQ
Briefly: Displacement of [3H]-5-carboxamidotryptamine from human 5-HT1A receptor expressed in HEK293T cell membranes incubated for 90 mins by scintillation counting method. Further details: species or system HEK-293T.

Assay [3] concerns the target 5-hydroxytryptamine receptor 7 (Homo sapiens, UniProt P34969). Briefly: Displacement of [3H]-5-carboxamidotryptamine from human 5-HT7A receptor expressed in HEK293 cell membranes incubated for 90 mins by scintillation counting method.

Sequence of 5-hydroxytryptamine receptor 7 (P34969 whole entry): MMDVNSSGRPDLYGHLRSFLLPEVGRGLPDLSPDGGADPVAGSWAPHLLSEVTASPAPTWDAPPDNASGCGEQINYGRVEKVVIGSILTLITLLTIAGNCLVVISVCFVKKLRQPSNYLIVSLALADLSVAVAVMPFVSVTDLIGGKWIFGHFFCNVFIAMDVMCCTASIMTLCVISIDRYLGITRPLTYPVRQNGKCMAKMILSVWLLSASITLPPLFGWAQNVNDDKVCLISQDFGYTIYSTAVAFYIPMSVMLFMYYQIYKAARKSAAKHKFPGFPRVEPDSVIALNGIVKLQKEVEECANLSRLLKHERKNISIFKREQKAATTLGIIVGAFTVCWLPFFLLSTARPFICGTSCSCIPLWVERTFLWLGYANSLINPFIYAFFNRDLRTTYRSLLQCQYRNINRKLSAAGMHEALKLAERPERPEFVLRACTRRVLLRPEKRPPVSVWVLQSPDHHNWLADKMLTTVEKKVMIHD

As to `CN(C)C1CCc2c(cccc2-c2ccccc2Cl)C1` (racemic), in assay [1], the Ratio Ki was found to be 3.3. The Ki in assay [2] worked out at 14 nM; in assay [3], 4.2 nM.
As for `CCCN(CCC)[C@H]1CCc2c(cccc2-c2ccccc2)C1`, the Ratio Ki in assay [1] was 0.17.
Consider `CN(C)[C@@H]1CCc2c(cccc2-c2cc(C(F)(F)F)cc(C(F)(F)F)c2)C1`, for which the inhibition constant (Ki) in assay [2] and in assay [3] was greater than 10000 nM throughout.
For the compound `COc1cccc(-c2cccc3c2CCC(N(C)C)C3)c1` (racemic), the Ratio Ki in assay [1] was found to be 2.6. For the same compound, the values for the Ki in assay [2] and in assay [3] were 73 nM and 28 nM, respectively.
The corresponding values for `CN(C)C1CCc2c(cccc2-c2cccc(Cl)c2)C1` (racemic) are 3.2, 82 nM and 26 nM.
As for `CN(C)C1CCc2c(cccc2-c2cc(F)cc(F)c2)C1` (racemic), in assay [1], the Ratio Ki stood at 1.3. The compound also had a Ki in assay [2] of 230 nM.
Turning to `CN(C)C1CCc2c(cccc2-c2cc(Cl)cc(Cl)c2)C1` (racemic), the Ratio Ki in assay [1] was 5.5. Also, the Ki in assay [2] came out at 2200 nM; in assay [3], 400 nM.
On to `CN(C)[C@@H]1CCc2c(cccc2-c2ccccc2)C1`, for which the Ratio Ki in assay [1] came to 0.21. Also, the figures for the Ki in assay [2] and in assay [3] were 1100 nM and 5200 nM, respectively.
With `CN(C)[C@@H]1CCc2c(cccc2-c2ccc(Cl)cc2)C1`, the Ratio Ki in assay [1] turned out to be 0.23. Besides, the Ki stood at 19 nM in assay [2] and 84 nM in assay [3].
Turning to `Fc1ccccc1-c1cccc2c1CCC(N1CCCC1)C2` (racemic), the Ratio Ki in assay [1] was 0.025.
For `CCCN(CCC)[C@@H]1CCc2c(cccc2-c2ccccc2Cl)C1`, the Ratio Ki in assay [1] was 0.33. Further, the Ki in assay [2] was 130 nM; in assay [3], 390 nM.
With `CN(C)[C@H]1CCc2c(cccc2-c2cccc3ccccc23)C1`, the Ratio Ki in assay [1] turned out to be 12.
As to `CN(C)C1CCc2c(cccc2-c2ccc(F)cc2Cl)C1` (racemic), the Ratio Ki in assay [1] worked out at 2.1. Besides, the inhibitory constant (Ki) in assay [2] was determined as 33 nM; in assay [3], 16 nM.
With `CN(C)[C@@H]1CCc2c(cccc2-c2ccccc2F)C1`, the affinity in assay [3] corresponds to a Ki of 740 nM. This lies in the sub-micromolar range.
In the case of `CN(C)[C@@H]1CCc2c(cccc2-c2cccs2)C1`, in assay [1], the Ratio Ki amounted to 0.83. Moreover, the Ki is 150 nM in assay [2] and 180 nM in assay [3].
The corresponding values for `CCCN(CCC)[C@@H]1CCc2c(cccc2-c2ccccc2)C1` are 1.1, 210 nM and 190 nM.
For `CN(C)[C@@H]1CCc2c(cccc2-c2ccco2)C1`, in that order: 2.2, 5600 nM and 2600 nM.
As to `CCCN(CCC)[C@H]1CCc2c(cccc2-c2ccccc2F)C1`, the Ratio Ki in assay [1] amounted to 0.34. In addition, the Ki in assay [2] turned out to be 1.8 nM; in assay [3], 5.3 nM.
The corresponding values for `CCCN(CCC)[C@@H]1CCc2c(cccc2-c2ccccc2F)C1` are 0.12, 92 nM and 740 nM.
The corresponding values for `CN(C)C1CCc2c(cccc2-c2cccc(F)c2)C1` (racemic) are 1.3, 23 nM and 18 nM.
In the case of `CN(C)[C@@H]1CCc2c(cccc2-c2cccn2C)C1`, the Ratio Ki in assay [1] was 0.92. In addition, in assay [3], affinity was put at a Ki of 600 nM.
`CN(C)[C@H]1CCc2c(cccc2-c2cccs2)C1`: the Ratio Ki in assay [1] is 0.26. In addition, the results for the Ki in assay [2] and in assay [3] were 4.5 nM and 17 nM, respectively.
Turning to `CN(C)[C@H]1CCc2c(cccc2-c2ccccc2)C1`, in assay [1], the Ratio Ki was 0.66. Besides, the affinity in assay [3], expressed as Ki, was 9.5 nM.
For the compound `CN(C)C1CCc2c(cccc2-c2cncc3ccccc23)C1` (racemic), the Ratio Ki in assay [1] stood at 6.7. The Ki came out at 650 nM in assay [2] and 97 nM in assay [3].
`CN(C)[C@H]1CCc2c(cccc2-c2ccc(Cl)cc2)C1`: in assay [1], the Ratio Ki is 1.2. Besides, the Ki in assay [2] was 190 nM; in assay [3], 160 nM.
For the compound `Cc1nn(C)c(C)c1-c1cccc2c1CC[C@H](N(C)C)C2`, in assay [1], the Ratio Ki was determined as 20.
As for `CN(C)[C@H]1CCc2c(cccc2-c2cccn2C)C1`, the Ratio Ki in assay [1] stood at 0.72. In addition, the Ki in assay [2] came out at 24 nM; in assay [3], 33 nM.
Consider `CN(C)[C@H]1CCc2c(cccc2-c2ccco2)C1`, for which, in assay [1], the Ratio Ki is 0.46. In addition, the inhibition constant (Ki) in assay [3] is 71 nM.
As for `CN(C)[C@H]1CCc2c(cccc2-c2ccccc2Cl)C1`, the Ratio Ki in assay [1] was determined as 7.6.
In the case of `CN(C)C1CCc2c(cccc2-c2c3ccccc3cc3ccccc23)C1` (racemic), the Ratio Ki in assay [1] was found to be 3.1. The Ki in assay [2] amounted to 1400 nM; in assay [3], 450 nM.
Consider `CN(C)C1CCc2c(cccc2-c2cccc(C(F)(F)F)c2)C1` (racemic), for which the Ratio Ki in assay [1] worked out at 2.9. Besides, in assay [2], the affinity corresponds to a Ki of 180 nM.
`CN(C)C1CCc2c(cccc2-c2cccc3ccccc23)C1` (racemic): in assay [1], the Ratio Ki was determined as 5.9. Also, the values for the Ki in assay [2] and in assay [3] were 130 nM and 22 nM, respectively.
As for `CN(C)C1CCc2c(cccc2C2CCCC2)C1` (racemic), in assay [1], the Ratio Ki stood at 0.41. In assay [2], this compound yielded a Ki of 98 nM.
On to `CN(C)[C@H]1CCc2c(cccc2-c2cc(C(F)(F)F)cc(C(F)(F)F)c2)C1`, for which the Ratio Ki in assay [1] turned out to be 2.5. The Ki in assay [2] came out at 2230 nM.
For `CCCN(CCC)[C@H]1CCc2c(cccc2-c2ccccc2Cl)C1`, in that order: 0.11 and 0.64 nM.
Turning to `CN(C)C1CCc2c(cccc2-c2ccc(F)cc2)C1` (racemic), the Ratio Ki in assay [1] stood at 0.26. For the same compound, the Ki was 30 nM in assay [2] and 117 nM in assay [3].

Usually Ki stands for a measure of affinity in units of concentration, obtained from inhibition or displacement.
